This experiment concerns the target T1, human Kv 1.5 channel (hKv 1.5) (Homo sapiens, UniProt P22460).
T1 construct: expressed in transfected cells
In words: Ultrarapid potassium current (IKur), whole-cell patch-clamp in HEK 293-hKv 1.5 cells. In kind it is cell-based. The source says:
The cardiac action potential is the basic electrical unit of excitable cardiac cells and represents the activity of several types of ion channels responsible for the various phases of the action potential. Different types of action potentials correspond to different cardiac regions, thus allowing sequential and coordinated activity in these regions. For this reason, Kv 1.5 potassium channels, coded by the KCNA5 gene, are expressed only in auricle tissue and are responsible for the ultrarapid potassium current (IKur) which acts in the repolarization of the auricular action potential. This highly localized expression of Kv 1.5 is in fact a target of choice in the treatment of auricular fibrillation, a pathology in which changes in auricular action potentials are observed.
Thus, the effects of DHA and EPA on IKur were studied. For this purpose, the human isoform of the Kv 1.5 channel (hKv 1.5) was transfected in a stable manner in HEK 293 (human embryonic kidney) cells and the current resulting from the activity of these channels was studied using a whole-cell patch-clamp technique.
HEK 293-hKv 1.5 cells are grown under standard conditions (37° C., incubator at […] and 5% CO2) in Falcon dishes up to 80% confluence. They are then removed and cultured in 35 mm petri dishes containing the following culture medium: DMEM (Invitrogen); 10% fetal bovine serum (Invitrogen); a mixture of 100 U/ml penicillin, 100 μg/ml streptomycin and 0.25 mg/ml glutamine (Invitrogen); and 1.25 mg/ml of Geneticin® as a selective antibiotic.
IKur is studied using the whole-cell patch-clamp technique at ambient temperature (19-22° C.). The pipette medium contains: 125 mM K-aspartate, 20 mM KCl, 10 mM EGTA, 5 mM HEPES, 5 mM Mg-ATP, 1 mM MgCl2, pH 7.3 (KOH). The extracellular medium contains: 140 mM NaCl, 20 mM HEPES, 5 mM D(+)-glucose, 5 mM KCl, 2 mM CaCl2, 1 mM MgCl2, pH 7.4 (NaOH).
IKur is induced every 15 seconds by 300 ms, +60 mV depolarizing pulses from a −80 mV holding potential, followed by −50 mV repolarization. The amplitude of the current peak is established from the maximum current obtained during the first 100 ms of the depolarizing pulse. The amplitude of the current at the end of the pulse is determined during the last 20 ms of the depolarizing pulse.
DHA and EPA are supplied by Sigma. Stock solutions (10 mM) are prepared in ethanol and the final concentration of solvent is 0.25%.

Consider two compounds from patent US8034377B2, “DHA esters and use thereof in treatment and prevention of cardiovascular disease” (Pierre Fabre Medicament, priority 2006, dated 2011).

Where two headings read alike, the source gives them in different places.

For orientation: inhibition means the change of the read-out against control, counted positive when it falls.

T1 sequence (P22460 whole entry): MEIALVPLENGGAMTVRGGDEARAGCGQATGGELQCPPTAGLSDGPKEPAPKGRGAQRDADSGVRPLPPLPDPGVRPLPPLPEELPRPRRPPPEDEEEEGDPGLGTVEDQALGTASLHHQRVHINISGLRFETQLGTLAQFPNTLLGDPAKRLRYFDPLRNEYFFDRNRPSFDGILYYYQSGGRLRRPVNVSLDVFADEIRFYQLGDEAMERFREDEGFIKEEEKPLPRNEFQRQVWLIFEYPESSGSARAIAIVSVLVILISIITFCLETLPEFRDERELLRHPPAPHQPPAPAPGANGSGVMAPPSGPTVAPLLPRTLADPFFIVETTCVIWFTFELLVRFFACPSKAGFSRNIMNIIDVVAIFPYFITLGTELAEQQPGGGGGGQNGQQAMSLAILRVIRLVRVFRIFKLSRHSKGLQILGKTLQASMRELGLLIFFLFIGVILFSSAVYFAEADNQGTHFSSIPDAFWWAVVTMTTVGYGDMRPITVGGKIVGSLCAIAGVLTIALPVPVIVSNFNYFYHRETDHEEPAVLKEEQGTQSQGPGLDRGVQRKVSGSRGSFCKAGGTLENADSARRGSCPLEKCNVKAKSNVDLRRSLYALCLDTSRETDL

For the compound `CC/C=C\C/C=C\C/C=C\C/C=C\C/C=C\C/C=C\CCC(=O)O` [DHA, docosahexaenoic acid], the inhibition at 1 µM worked out at 8.2% (1 μM, HEK 293-hKv 1.5, +60 mV pulse, max current in first 100 ms, read-out: Percent inhibition of Peak IKur, Mean) and 10.1% (1 μM, HEK 293-hKv 1.5, last 20 ms of 300 ms depolarizing pulse, read-out: Percent inhibition of End of pulse IKur, Mean). The inhibition at 3.2 µM is, setting by setting: (3.2 μM, HEK 293-hKv 1.5, +60 mV pulse, max current in first 100 ms, read-out: Percent inhibition of Peak IKur, Mean) 10.9%; (3.2 μM, HEK 293-hKv 1.5, last 20 ms of 300 ms depolarizing pulse, read-out: Percent inhibition of End of pulse IKur, Mean) 14.5%. Further, the inhibition at 5.6 µM amounted to 15.4% (HEK 293-hKv 1.5, +60 mV pulse, max current in first 100 ms, read-out: Percent inhibition of Peak IKur, Mean) and 33.7% (HEK 293-hKv 1.5, last 20 ms of 300 ms depolarizing pulse, read-out: Percent inhibition of End of pulse IKur, Mean). In addition, the inhibition at 10 µM is, setting by setting: (10 μM, HEK 293-hKv 1.5, +60 mV pulse, max current in first 100 ms, read-out: Percent inhibition of Peak IKur, Mean) 22.6%; (10 μM, HEK 293-hKv 1.5, last 20 ms of 300 ms depolarizing pulse, read-out: Percent inhibition of End of pulse IKur, Mean) 78%. The inhibition at 25 µM came to 58.1 ± 13.6% (25 μM, HEK 293-hKv 1.5, +60 mV pulse, max current in first 100 ms, read-out: Percent inhibition of Peak IKur, Mean) and 86.5 ± 3.4% (25 μM, HEK 293-hKv 1.5, last 20 ms of 300 ms depolarizing pulse, read-out: Percent inhibition of End of pulse IKur, Mean).

On to `CC/C=C\C/C=C\C/C=C\C/C=C\C/C=C\CCCC(=O)O` [EPA], for which the “Percent inhibition of Peak IKur, Mean” value (1 μM, HEK 293-hKv 1.5, +60 mV pulse, max current in first 100 ms) turned out to be 14.6%; the “Percent inhibition of Peak IKur, Mean” value (3.2 μM, HEK 293-hKv 1.5, +60 mV pulse, max current in first 100 ms) was found to be 16.1%; the “Percent inhibition of Peak IKur, Mean” value (10 μM, HEK 293-hKv 1.5, +60 mV pulse, max current in first 100 ms) turned out to be 17.5±6.4%; the “Percent inhibition of Peak IKur, Mean” value (25 μM, HEK 293-hKv 1.5, +60 mV pulse, max current in first 100 ms) worked out at 5.4%. The “Percent inhibition of End of pulse IKur, Mean” value was determined as 14.9% (1 μM, HEK 293-hKv 1.5, last 20 ms of 300 ms depolarizing pulse); 19.9% (3.2 μM, HEK 293-hKv 1.5, last 20 ms of 300 ms depolarizing pulse); 36.6% (10 μM, HEK 293-hKv 1.5, last 20 ms of 300 ms depolarizing pulse); 61.6±7.3% (25 μM, HEK 293-hKv 1.5, last 20 ms of 300 ms depolarizing pulse).
